# Source: patent US20240376153A1, “CNP CYCLIC PEPTIDE, AND MEDICINE, EXTERNAL PREPARATION AND COSMETIC EACH CONTAINING SAID CYCLIC PEPTIDE” (Igisu Co., Ltd., priority 2015, published 2024)
# “Also recorded” adds a separate entry of the source. Positions of bridges follow the written chain, without caps; N, C: chain ends. No end group written: not given here.
# System: affected site of skin
# Experiment: Effect on skin of cyclic peptides in which amino acid was substituted
# Format: in vivo, human
# Description: Formulations A to E refers to cyclic peptide concentration of 1, 5, 30, 100, 500 μg/ml, respectively.
# [1] = rough skin, Formulation C (30 μg/ml)
# [2] = atopic dermatitis, Formulation C (30 μg/ml in purified water) applied to affected site
# [3] = atopic dermatitis, Formulation B (5 μg/ml in purified water) applied to affected site
# [4] = psoriasis vulgaris, Formulation C (30 μg/ml)
substance,measurement,setting,value
SEQ ID NO: 12: cyclic peptide in which one amino acid has been substituted (CFGLKLDRIGVMSGLGC; disulfide 1-17),Post-treatment diagnostic skin impression,[1],improved.
SEQ ID NO: 51: cyclic peptide in which three amino acids have been substituted (CFGLKMDRIGTMTGLGC; disulfide 1-17),Post-treatment diagnostic skin impression,[2],"Immediately after application, itches were eliminated; also recorded: scratch scars were remitted"
same,Post-treatment diagnostic skin impression,"eczema, Formulation B (5 μg/ml)","Immediately after application, itches were eliminated; also recorded: After 3 min, erythema and infiltration were remitted"
SEQ ID NO: 6: cyclic peptide in which one amino acid has been substituted (CFALKLDRIGSMSGLGC; disulfide 1-17),Post-treatment diagnostic skin impression,"eczema, large winkles, Formulation B (5 μg/ml)","Immediately after application, itches were eliminated."
same,Post-treatment diagnostic skin impression,[1],"texture was improved. After 2 min, wrinkles were shallowed,; also recorded: skin was full and given resilience; also recorded: Immediately after application, itches were eliminated, skin"
SEQ ID NO: 8: cyclic peptide in which one amino acid has been substituted (CFGLKMDRIGSMSGLGC; disulfide 1-17),Post-treatment diagnostic skin impression,"atopic dermatitis, Formulation A (1 μg/ml), two-sided application (right vs left) in the same subject","After 1 min, erythema, infiltration, itches were remitted; also recorded: After 2 min, stining feeling was eliminated; also recorded: Immediately after application, itches were eliminated; also recorded: improved, skin texture was improved and moistened"
same,Post-treatment diagnostic skin impression,[3],"Immediately after application, itches were eliminated,; also recorded: erythema and scales were remitted"
same,Post-treatment diagnostic skin impression,[2],"the day next, erythema was remarkably improved; also recorded: After stopping 3 days of application, the effects lasted"
same,Post-treatment diagnostic skin impression,"rough skin, Formulation A (1 μg/ml)","Immediately after application itches were eliminated; also recorded: After 3 min, skin texture was improved finely, pore"
same,Post-treatment diagnostic skin impression,"seborrheic dermatitis, acne (comedo), Formulation C (30 μg/ml)","After 1 min, itches were eliminated; also recorded: opening became inconspicuous, acne (comedo) was reduced"
SEQ ID NO: 14: cyclic peptide in which one amino acid has been substituted (CFGLKLDRIGLMSGLGC; disulfide 1-17),Post-treatment diagnostic skin impression,[3],"After 1 min, itches, scales, erythema"
same,Post-treatment diagnostic skin impression,[4],"After 3 min, scales, crusts and infiltration were remitted."
SEQ ID NO: 32 (CFALKMDRIGSMSGLGC; disulfide 1-17),Post-treatment diagnostic skin impression,[4],"remitted. After 10 min, erythema was further remitted."
same,Post-treatment diagnostic skin impression,"rough skin, acne (comedo), Formulation C (30 μg/ml)","Immediately after application, itches were eliminated; also recorded: (comedo) was reduced"
SEQ ID NO: 37: cyclic peptide in which two amino acids have been substituted (CFGLKMDRIGSMTGLGC; disulfide 1-17),Post-treatment diagnostic skin impression,"atopic dermatitis, Formulation A (1 μg/ml in purified water) applied to affected site","After 2 min, itches were eliminated."
same,Post-treatment diagnostic skin impression,[2],"Immediately after application, itches were remitted,; also recorded: erythema, infiltration and scales were remarkably improved"
SEQ ID NO: 35: cyclic peptide in which two amino acids have been substituted (CFALKLDRIGSMSGIGC; disulfide 1-17),Post-treatment diagnostic skin impression,[3],"Immediately after application, itches were eliminated,; also recorded: erythema ard scales were remarkably improved"
same,Post-treatment diagnostic skin impression,[2],"After 1 min, itches were eliminated; also recorded: After 2 min, scales and erythema were remarkably improved; also recorded: After 3 min, skin was almost normalized and moisturized"
